According to patent US10836725B2, “Modulators of the integrated stress pathway” (Calico Life Sciences LLC, priority 2016, dated 2020):

tested on: ATF4 luciferase reporter; assay: ATF4-Luc assay in HEK293T cells carrying the ATF4 luciferase reporter (in vitro model of VWMD); format: cell-based, human; settings: Homo sapiens, HEK-293T, 1 μg/mL tunicamycin, 7 hours, luminescence (One Glo)
Procedure: In order to test exemplary compounds of the invention in a cellular context, a stable VWMD cell line was first constructed. The ATF4 reporter was prepared by fusing the human full-length ATF4 5′-UTR (NCBI Accession No. BC022088.2) in front of the firefly luciferase (FLuc) coding sequence lacking the initiator methionine as described in Sidrauski et al (eLife 2013). The construct was used to produce recombinant retroviruses using standard methods and the resulting viral supernatant was used to transduce HEK293T cells, which were then subsequently selected with puromycin to generate a stable cell line.
HEK293T cells carrying the ATF4 luciferase reporter were plated on polylysine coated 384-well plates (Greiner Bio-one) at 30,000 cells per well. Cells were treated the next day with 1 μg/mL tunicamycin and 200 nM of a compound of Formula (I) for 7 hours. Luminescence was measured using One Glo (Promega) as specified by the manufacturer. Cells were maintained in DMEM with L-glutamine supplemented with 10% heat-inactivated FBS (Gibco) and Antibiotic-Antimycotic solution (Gibco).
Table 2 below summarizes the EC50 data obtained using the ATF4-Luc assay for exemplary compounds of the invention.

Row | SMILES | EC50 [nM]
1 | Cc1ccnc(CNC(=O)C23CCC(NC(=O)COc4ccc(Cl)c(F)c4)(CC2)CC3O)c1 (centres unmarked) [Compound 143, 4-[2-(4-chloro-3-fluorophenoxy)acetamido]-2-hydroxy-N-[(4-methylpyridin-2-yl)methyl]bicyclo[2.2.2]octane-1-carboxamide] | < 250
2 | O=C(COc1ccc(Cl)c(F)c1)NC12CCC(C(=O)NCc3ccccn3)(CC1)C(O)C2 (centres unmarked) [Compound 139] | 1000 to 2000
3 | CC(C)Cc1cc(CNC(=O)C23CC(NC(=O)COc4ccc(Cl)c(F)c4)(C2)C3)on1 [Compound 212, 3-[2-(4-chloro-3-fluorophenoxy)acetamido]-N-{[3-(2-methylpropyl)-1,2-oxazol-5-yl]methyl}bicyclo[1.1.1]pentane-1-carboxamide] | > 2000
4 | CC(NC(=O)C12CC(NC(=O)COc3ccc(Cl)c(F)c3)(C1)C2)c1ccccc1 (centres unmarked) [Compound 172, 3-[2-(4-chloro-3-fluorophenoxy)acetamido]-N-(1-phenylethyl)bicyclo[1.1.1]pentane-1-carboxamide] | > 2000
5 | O=C(COc1ccc(Cl)c(F)c1)NC12CC(C(=O)NCc3noc(-c4ccccc4)n3)(C1)C2 [Compound 201, 3-[2-(4-chloro-3-fluorophenoxy)acetamido]-N-[(5-phenyl-1,2,4-oxadiazol-3-yl)methyl]bicyclo[1.1.1]pentane-1-carboxamide] | 1000 to 2000
6 | O=C(COc1ccc(Cl)c(F)c1)NC12CCC(C(=O)NCCc3ccc(C(F)(F)F)cc3)(CC1)C(O)C2 (centres unmarked) [Compound 138, 4-[2-(4-chloro-3-fluorophenoxy)acetamido]-2-hydroxy-N-{2-[4-(trifluoromethyl)phenyl]ethyl}bicyclo[2.2.2]octane-1-carboxamide] | < 250
7 | Cn1ccc(CNC(=O)C23CCC(NC(=O)COc4ccc(Cl)c(F)c4)(CC2)CC3O)n1 (centres unmarked) [Compound 116, 4-[2-(4-chloro-3-fluorophenoxy)acetamido]-2-hydroxy-N-[(1-methyl-1H-pyrazol-3-yl)methyl]bicyclo[2.2.2]octane-1-carboxamide] | > 2000
8 | Cc1cnc(CNC(=O)C23CC(NC(=O)COc4ccc(Cl)c(F)c4)(C2)C3)s1 [Compound 178, 3-[2-(4-chloro-3-fluorophenoxy)acetamido]-N-[(5-methyl-1,3-thiazol-2-yl)methyl]bicyclo[1.1.1]pentane-1-carboxamide] | > 2000

The remaining lines, values ahead:

Row | EC50 [nM] | SMILES
9 | 500 to 1000 | O=C(COc1ccc(Cl)c(F)c1)NC12CC(C(=O)NCc3ccc(OC(F)F)cc3)(C1)C2 [Compound 169, 3-[2-(4-chloro-3-fluorophenoxy)acetamido]-N-{[4-(difluoromethoxy)phenyl]methyl}bicyclo[1.1.1]pentane-1-carboxamide]
10 | > 2000 | NS(=O)(=O)c1ccc(CCNC(=O)C23CC(NC(=O)COc4ccc(Cl)c(F)c4)(C2)C3)cc1 [Compound 199, 3-[2-(4-chloro-3-fluorophenoxy)acetamido]-N-[2-(4-sulfamoylphenyl)ethyl]bicyclo[1.1.1]pentane-1-carboxamide]
11 | > 2000 | COc1ccc(CNC(=O)C23CC(NC(=O)COc4ccc(Cl)c(F)c4)(C2)C3)cn1 [Compound 157, 3-[2-(4-chloro-3-fluorophenoxy)acetamido]-N-[(6-methoxypyridin-3-yl)methyl]bicyclo[1.1.1]pentane-1-carboxamide]
12 | > 2000 | O=C(COc1ccc(Cl)c(F)c1)NC12CC(C(=O)NCc3ccno3)(C1)C2 [Compound 222, 3-[2-(4-chloro-3-fluorophenoxy)acetamido]-N-[(1,2-oxazol-5-yl)methyl]bicyclo[1.1.1]pentane-1-carboxamide]
13 | > 2000 | O=C(COc1ccc(Cl)c(F)c1)NC12CC(C(=O)NCc3cccc(F)c3)(C1)C2 [Compound 237, 3-[2-(4-chloro-3-fluorophenoxy)acetamido]-N-[(3-fluorophenyl)methyl]bicyclo[1.1.1]pentane-1-carboxamide]
14 | > 2000 | O=C(COc1ccc(Cl)c(F)c1)NC12CC(C(=O)NCc3ccc(OC(F)(F)F)cc3)(C1)C2 [Compound 225, 3-[2-(4-chloro-3-fluorophenoxy)acetamido]-N-{[4-(trifluoromethoxy)phenyl]methyl}bicyclo[1.1.1]pentane-1-carboxamide]
